For data set [1], the system named is RAW264.7. The data set can be described thus: Antiinflammatory activity in mouse RAW264.7 cells assessed as inhibition of LPS-induced NO production after 24 hrs by Griess method. The data set is classed as functional, cell-based. To be noted: for IC50: RAW264.7, 24 h. (In general: Griess reagent forms a coloured azo dye with nitrite.)
The test system of data set [2] is RAW264.7. The data set is described as follows: Cytotoxicity against mouse RAW264.7 cells by CCK assay. The data set is classed as cell-based.

This is an account of results in ChEMBL document CHEMBL1932950, “Inhibitory constituents of Nardostachys chinensis on nitric oxide production in RAW 264.7 macrophages” (Bioorg Med Chem Lett, 2012).

Broadly, the IC50 is the midpoint of a concentration-inhibition curve.

On to `C[C@@H]1CCC=C2C(=O)CC(=O)C[C@]21C`, for which, in the data set on RAW264.7 [1], the IC50 was more than 50 µM. In the data set with RAW264.7 [2], the Activity entry was “Non-toxic”.

For the compound `COc1cc(C2OC2CO)ccc1O` (centres undefined) [EPOXYCONIFERYL ALCOHOL], the IC50 with RAW264.7 [1] is more than 50 µM. Further, the Activity result in the data set with RAW264.7 [2] is on record as “Non-toxic”.

Take `C[C@@H]1CCC=C2C(=O)C[C@H]3OOC(C)(C)[C@H]3[C@]21C` [NARDOSINONE]: in the data set on RAW264.7 [1], the inhibition entry was “Dose-dependent effect” and the IC50 was 11.1 µM. Further, the Activity entry in the data set with RAW264.7 [2] is “Non-toxic”.

Consider `COc1cc([C@@H]2OC[C@@H]3[C@H]2CO[C@H]3c2ccc(O)c(OC)c2)ccc1O` [(+)-PINORESINOL], for which, in the data set with RAW264.7 [1], the half-maximal inhibitory concentration (IC50) is 33.5 µM.

`C[C@@H]1C[C@@H](O)C=C2C(=O)C=C[C@@H](O)[C@]21C` [NARCHINOL C]: in the data set with RAW264.7 [1], the inhibition entry is “Dose-dependent effect” and the IC50 stood at 21.6 µM. For the same compound, in the data set with RAW264.7 [2], the Activity result is reported as “Non-toxic”.

On to `C[C@@H]1CCC=C2C(=O)C=C[C@@H](O)[C@]21C`, for which, in the data set with RAW264.7 [1], the inhibition result is “Dose-dependent effect” and the IC50 is 8.4 µM. Also, the Activity entry in the data set with RAW264.7 [2] is recorded as “Non-toxic”.

For the compound `O=C(O)/C=C/c1ccc(O)cc1` [COUMARIC ACID], the IC50 in the data set with RAW264.7 [1] is more than 50 µM. Also, the Activity result in the data set with RAW264.7 [2] is “Non-toxic”.

For `C[C@@H]1C[C@H](O)C=C2C(=O)C=C[C@@H](O)[C@]21C` [NARCHINOL B], in the data set on RAW264.7 [1], the inhibition entry is “Dose-dependent effect” and the IC50 is 4.6 µM. The Activity entry in the data set on RAW264.7 [2] is on record as “Non-toxic”.

Consider `C[C@@H]1CC(=O)C=C2[C@H](O)C[C@@H]3[C@@H](C3(C)C)[C@]21C` [DEBILON], for which, in the data set with RAW264.7 [1], the IC50 was more than 50 µM. In the data set on RAW264.7 [2], the Activity entry was “Non-toxic”.

On to `C[C@@H]1C[C@@H](O)C=C2C(=O)C[C@H]3OOC(C)(C)[C@H]3[C@]21C` [KANSHONE B], for which, in the data set with RAW264.7 [1], the inhibition entry is “Dose-dependent effect” and the IC50 was found to be 11.5 µM. In addition, the Activity entry in the data set with RAW264.7 [2] is “Non-toxic”.

Regarding `COc1cc([C@H]2OC[C@H]3[C@@H]2CO[C@@H]3c2ccc(O)c(OC)c2)ccc1O` [(+)-PINORESINOL], the Activity result with RAW264.7 [2] is reported as “Non-toxic”.

Turning to `COc1ccc(/C=C/C(=O)O)cc1O` [ISOFERULIC ACID], the IC50 in the data set on RAW264.7 [1] was more than 50 µM. Besides, the Activity entry in the data set with RAW264.7 [2] was “Non-toxic”.

Turning to `C[C@H]1[C@H](C)CC[C@]2(C(=O)O)CC[C@]3(C)C(=CC[C@@H]4[C@@]5(C)CC[C@H](O)C(C)(C)[C@@H]5CC[C@]43C)[C@H]12` [URSOLIC ACID], the IC50 in the data set with RAW264.7 [1] is more than 50 µM. For the same compound, the Activity entry with RAW264.7 [2] was “Non-toxic”.
